Measurements as given in article PMC7363588, “Mapping of the FGF14:Nav1.6 complex interface reveals FLPK as a functionally active peptide modulating excitability” (Physiological Reports, 2020).
“Also recorded” adds a separate entry of the source. Peptide text beside a SMILES is read from it.

Columns and labels:
FGF14:Nav1.6 complex = target: T1, FGF14:Nav1.6 complex (Homo sapiens, UniProt Q92915); test: Split-luciferase complementation assay (LCA), CLuc-FGF14 wild type; format: cell-based; settings: for effect on FGF14:Nav1.6 complex formation: 50 µM, 12 hr, HEK293, % maximal luminescence vs DMSO, n = 6–10 independent experiments, FLPK, EYYV p < .01, PLEV p < .001
T1 construct: expressed in transfected cells; host or cells: HEK293, transient transfection
T1 sequence (Q92915 1-252 isoform Q92915-2): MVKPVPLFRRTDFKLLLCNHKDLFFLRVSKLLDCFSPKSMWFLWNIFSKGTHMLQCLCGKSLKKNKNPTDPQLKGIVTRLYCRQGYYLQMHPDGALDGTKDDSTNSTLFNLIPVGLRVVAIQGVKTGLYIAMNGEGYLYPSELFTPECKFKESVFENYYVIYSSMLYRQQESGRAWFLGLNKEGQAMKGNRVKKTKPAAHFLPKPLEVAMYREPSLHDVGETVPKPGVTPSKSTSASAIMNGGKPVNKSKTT
Description: Plasmids used in this study derived from the following clones: human FGF14‐1b isoform (accession number: NM_175929.2) and human Nav1.6 (accession number: NM_014191.3). The CLuc‐FGF14, CD4‐Nav1.6‐NLuc, constructs and the pcDNA3.1 vector (Invitrogen, Carlsbad, CA) were engineered and characterized as previously described (Goetz et al., 2009; Shavkunov et al., 2012,2013,2015; Ali et al., 2016, 2018; Wadsworth et al., 2019). The plasmid pGL3 expressing full length Firefly (Photinus pyralis) luciferase was a gift from Dr. P. Sarkar (Department of Neurology, UTMB). For protein purification studies, cDNAs encoding FGF14‐1b (accession number NP_787125; aa 64–252) or the C‐terminal tail of Nav1.6 (accession number #NP_001171455; aa 1756–1939) were subcloned into suitable pET bacterial expression vectors (pET28a‐FGF14; pET30a‐Nav1.6) with a 6X His‐tag at the N‐terminal site; these plasmids were a gift of Dr. Moosa Mohammadi (NYU, Langone Medical Center). The mutation coding for FGF14^V160A was generated by site‐directed mutagenesis and PCR using FGF14‐1b as a template described previously (Ali et al., 2016). For electrophysiological studies FGF14‐GFP (human) and FGF14‐ΔNT‐GFP (human) were cloned into the GFP plasmid (pQBI‐fC2; Quantum Biotechnology Inc., Montreal, Canada) as previously described.
HEK293 cells were maintained in DMEM and F‐12 (Invitrogen, Carlsbad, CA), supplemented with 0.05% glucose, 0.5 mM pyruvate, 10% fetal bovine serum, 100 units/ml penicillin, and 100 µg/ml streptomycin (Invitrogen), and incubated at 37 °C with 5% CO2. HEK293 cells stably expressing the human Nav1.6 channel (hereafter referred to as HEK‐Nav1.6 cells) were maintained similarly except for the addition of 500 μg/ml G418 (Invitrogen) to maintain stable Nav1.6 expression. Cells were transfected at 80%–90% confluence with equal amount (1 μg each) of plasmid pairs using Lipofectamine 2000 (Invitrogen) according to manufacturer's instructions. HEK‐Nav1.6 cells were washed and replated at very low density prior to electrophysiological recordings (Ali et al., 2016, 2018; Scala et al., 2018; Wadsworth et al., 2019).
Twenty‐four hours after transfection, HEK293 cells were replated from the 24‐well plate using a 0.04% Trypsin:EDTA mixture dissolved in PBS. Suspended cells were centrifuged and seeded in white, clear‐bottom 96‐well tissue culture plates (Greiner Bio‐One) in 200 µl of medium. […] The bioluminescence reaction was initiated by dispensing 100 µl of D‐luciferin substrate (1.5 mg/ml dissolved in PBS) using a Synergy^TM H4 Multi‐Mode Micro plate Reader (Biotech, Winooski, VT). Luminescence readings were initiated after 3 s of mild plate shaking and performed at 2 min intervals for 20 min with integration times of 0.5 s. […]
To test the hypothesis that FLPK, PLEV and/or EYYV in cells could act as FGF14 inhibitors of the FGF14:Nav1.6 complex assembly, the complex was reconstituted using LCA (Ali et al., 2014, 2016; Hsu et al., 2015, 2017; Shavkunov et al., 2012,2013,2015; Wadsworth et al., 2019). HEK293 cells transfected with constructs expressing CLuc‐FGF14 and CD4‐Nav1.6 C‐tail‐NLuc in which luminescence is detected upon addition of the D‐luciferin substrate as a read‐out of protein binding (Figure 3). In‐cell binding of the reconstituted FGF14:Nav1.6 complex in the presence of vehicle (0.1% DMSO) is represented as summary bar graphs of percent maximal luminescence at 10–15 min of reaction time (Figure 3). […]

[1] = system: FGF14^Y158A:Nav1.6 complex; test: LCA, CLuc-FGF14^Y158A; format: cell-based, human; settings: 50 µM peptide, 12 hr, HEK293, vs DMSO

Molecule | effect on FGF14:Nav1.6 complex formation (FGF14:Nav1.6 complex) | IC50 (FGF14:Nav1.6 complex; HEK293 cells, FLPK 1, 10, 25, 50, 75, 100, 150, 250 µM, luminescence normalized to DMSO, apparent IC50, read-out: IC50, inhibition of FGF14:Nav1.6 complex formation) [µM] | efficacy in reducing FGF14:Nav1.6 complex formation (FGF14:Nav1.6 complex; dose-response (Figure 3f), compared to control conditions) | effect on FGF14^Y158A:Nav1.6 complex formation [1]
CC(=O)N[C@@H](Cc1ccccc1)C(=O)N[C@@H](CC(C)C)C(=O)N1CCC[C@H]1C(=O)N[C@@H](CCCCN)C(N)=O [FLPK] (Ac-FLPK-NH2) | significant reduction of the FGF14:Nav1.6 complex formation; also recorded: weak inhibition | 58 | above 50% | abolished the effect of FLPK
EYYV [tetrapeptide previously designed from FGF14:FGF14 dimer interface; docked with N-terminal acetylation and C-terminal amidation] | significant reduction of the FGF14:Nav1.6 complex formation |  |  | increased the inhibition
PLEV [tetrapeptide previously designed from FGF14:FGF14 dimer interface; docked with N-terminal acetylation and C-terminal amidation] | significant reduction of the FGF14:Nav1.6 complex formation |  |  | increased the inhibition
